Series [1] concerns A549 human lung cancer cell line. The series is described as follows: MTT cell viability assay, A549. The class given is cell-based. To be noted: 48 h treatment, n = 3. How it is done:
(§1) Cytotoxicity of the metabolites and substrate were evaluated in various cancer cell lines (pancreatic: PANC-1, MIA PaCa-2; prostate: DU 145 and lung: A549) and two healthy cell lines (lung: MRC-5 and kidney: HEK-293) by MTT cell viability assay (Table 3).
(§2) To see cytotoxic effects of the obtained metabolites, a standard MTT (3-(4,5-dimethylthiazol-2-yl)-2,5-diphenyltetrazolium bromide) cell viability assay was performed on human cancer cell lines PANC-1 (pancreatic, ATCC® CRL-1469™), MIA PaCa-2 (pancreatic, ATCC® CRL-1420™), DU 145 (prostate, ATCC® HTB-81™) and A549 (lung, ATCC® CCL-185™) and two healthy cell lines MRC-5 (lung, ATCC® CCL-171™) and HEK-293 (kidney, ATCC® CRL-1573™) according to manufacturer’s instructions (M2128, Sigma-Aldrich®). For this purpose, cells at 80–90% confluency were seeded to 96-well plates as 5-10x10^3 cells/well in Eagle Minimal Essential Medium (EMEM) or Dulbecco Modified Eagle Medium (DMEM); supplemented with 10% FBS and 1% L-glutamine depending on the cell type and incubated in a humidified incubator at 37 °C with 5% CO2 atmosphere for 24 h. After cell adhesion, gitoxigenin and the metabolites were applied to the cells in triplicate with concentrations ranging between 0.001 and 10 µM. After 48 h exposure to certain concentrations of the compounds, medium was replaced with fresh one containing 10% MTT and plates were incubated for 3 h in the dark for the conversion of tetrazolium salts to formazan crystals by mitochondrial metabolism of viable cells. After incubation, formazan crystals were dissolved in DMSO and absorbance of each well were measured at 570 nm via microplate reader (Synergy™ HTX- BioTek, Winooski, VT, USA). Doxorubicin (10 nM, 1 µM and 4 µM) was used as positive control, whereas oleandrin (1 nM, 10 nM and 100 nM) was the second positive control as a potent cardenolide.
(§3) All compounds were dissolved in DMSO (Sigma Aldrich, St. Louis, MO, USA) and the final DMSO concentration applied to cells was 0.02% (v/v), which is non-toxic to cells. The IC50 values of the compounds were calculated by the normalization of optical densities (OD) to negative control DMSO (0.02%, v/v).
In general terms: Tetrazolium dyes change colour on reduction, which living cells bring about.

Series [2] concerns DU 145 human prostate cancer cell line. The series is described as follows: MTT cell viability assay, DU 145. The conditions noted are these: 48 h treatment, n = 3. Type of series: cell-based. How it is done:
as §1, §2, §3

For series [3], the system named is PANC-1 human pancreatic cancer cell line. The series can be described thus: MTT cell viability assay, PANC-1. Type of series: cell-based. The conditions noted are these: 48 h treatment, n = 3. How it is done:
as §1, §2, §3

Series [4] relates to Mia PaCa-2 pancreatic cancer cell line. The series is described as follows: MTT cell viability assay, MIA PaCa-2. Type of series: cell-based. To be noted: Homo sapiens, 48 h treatment, n = 3. How it is done: as §1, §2, §3
The subject of series [5] is HEK-293 human embryonic kidney cell line. The series is described as follows: MTT cell viability assay, HEK-293 (healthy). Type of series: cell-based. The conditions noted are these: for IC50: Homo sapiens, HEK293, healthy cell line, 48 h treatment, MTT, n = 3. How it is done:
as §1, §2, §3

Series [6] has as its system MRC-5 human lung fibroblast cell line. The series can be described thus: MTT cell viability assay, MRC-5 (healthy). The class given is cell-based. The conditions noted are these: MRC5, 48 h treatment, n = 3. The protocol: as §1, §2, §3
The test system of series [7] is A549, DU 145, PANC-1, MIA PaCa-2 cell lines. The series is described as follows: MTT cell viability assay, four cancer cell lines together. To be noted: Homo sapiens; range over four cancer cell lines; read-out: IC50 values ranging over A549, DU 145, PANC-1, MIA PaCa-2 cell lines. The class given is cell-based. How it is done:
as §1
To see cytotoxic effects of the obtained metabolites, a standard MTT (3-(4,5-dimethylthiazol-2-yl)-2,5-diphenyltetrazolium bromide) cell viability assay was performed on human cancer cell lines PANC-1 (pancreatic, ATCC® CRL-1469™), MIA PaCa-2 (pancreatic, ATCC® CRL-1420™), DU 145 (prostate, ATCC® HTB-81™) and A549 (lung, ATCC® CCL-185™) and two healthy cell lines MRC-5 (lung, ATCC® CCL-171™) and HEK-293 (kidney, ATCC® CRL-1573™) according to manufacturer’s instructions (M2128, Sigma-Aldrich®). […] After incubation, formazan crystals were dissolved in DMSO and absorbance of each well were measured at 570 nm via microplate reader (Synergy™ HTX- BioTek, Winooski, VT, USA). […]
as §3

A further series concerns dengue virus. Set-up: method as in PMID 22155902. To be noted: immunofluorescence screen, hit criteria ≥40% inhibition; cited from earlier work.
Series [8] concerns HeLa cells. Details: method as in PMID 12054363. The conditions noted are these: homogeneous plate-reader assay; read-out: EC50 anticancer effect against HeLa cells; cited from earlier work.
For series [9], the system named is TK-10 (renal adenocarcinoma). Set-up: method as in PMID 14531018. The conditions noted are these: cited from earlier work.
A further series has as its system UACC-62 (melanoma). Set-up: method as in PMID 14531018. The conditions noted are these: cited from earlier work.
Series [10] has as its system MCF-7 (breast adenocarcinoma). Details: method as in PMID 14531018. To be noted: cited from earlier work.
For series [11], the system named is HeLa cells. Set-up: method as in PMID 5589524. The conditions noted are these: cited from earlier work.
Series [12] concerns human nasopharynx carcinoma. Details: method as in PMID 5014314. To be noted: cited from earlier work.
In series [13] the test system is infectious virus production (COVID-19). Set-up: method as in doi:10.1101/2020.07.15.203489. The conditions noted are these: in vitro, cited from earlier work.

These results are taken from article PMC8161373, “New Cardenolides from Biotransformation of Gitoxigenin by the Endophytic Fungus Alternaria eureka 1E1BL1: Characterization and Cytotoxic Activities” (Molecules, 2021).

In brackets after ≈: the same amount, converted by molar mass. Where two headings read alike, the source gives them in different places.

Turning to `C[C@]12CCC(=O)C[C@H]1CC(O)C1C2CC[C@]2(C)[C@@H](C3=CC(=O)OC3)[C@@H](O)C[C@]12O` (stereo partly drawn) [Compound 1, 4-((5R,10S,13R,14S,16S,17R)-7,14,16-Trihydroxy-10,13-dimethyl-3-oxohexadecahydro-1H-cyclopenta[a]phenanthren-17-yl)furan-2(5H)-one], the IC50 in series [1], in [2], in series [3], in series [4], in [5] and in series [6] was above 10 µM throughout.
As for `C[C@]12CC[C@H](O)C[C@H]1CCC1C2CC[C@]2(C)[C@@H](C3=CC(=O)OC3)[C@@H](O)C[C@]12O` (stereo partly drawn) [Gitoxigenin, 4-((3S,5R,10S,13R,14S,16S,17R)-3,14,16-Trihydroxy-10,13-dimethylhexadecahydro-1H-cyclopenta[a]phenanthren-17-yl) furan-2(5H)-one], the IC50 (usually the point on the concentration scale where inhibition reaches its midpoint) in [1] was 2.19 µM; in series [2], 4.08 µM; in [3], 1.53 µM; in [4], 3.1 µM; in series [5], 7.6 µM; in series [6], 0.815 µM. Also, the IC50 in [7] is 1.53 to 4.08 µM; in [9], 0.415 ± 0.03 µM; with UACC-62 (melanoma), 2.83 ± 0.17 µM; in [10] it was 1.8 ± 0.32 µM. In the series on dengue virus, the “inhibition of dengue virus” value is 49.01%. Moreover, the concentration for a half-maximal effect (EC50) – broadly, the concentration giving half of the maximal effect – in the series with HeLa cells [8] was 2.1 µM. Moreover, the “growth inhibitory effect on HeLa cells” value with HeLa cells [11] is 2.25 µg/mL. For the same molecule, in series [12], the “ED50 in vitro inhibitory activity against human nasopharynx carcinoma” value was 2.3 µg/mL (≈ 5.89 µM).
Consider `C[C@]12CCC(=O)C[C@H]1CC(O)C1C2CC(O)[C@]2(C)[C@@H](C3=CC(=O)OC3)[C@@H](O)C[C@]12O` (stereo partly drawn) [Compound 3, 4-((5R,10S,13S,14S,16S,17R)-7,12,14,16-Tetrahydroxy-10,13-dimethyl-3-oxohexadecahydro-1H-cyclopenta[a]phenanthren-17-yl)furan-2(5H)-one], for which the IC50 in series [1], in [2], in [3], in [4], in series [5] and in series [6] was above 10 µM each time.
For `CO[C@H]1C[C@H](O[C@H]2CC[C@@]3(C)[C@H](CC[C@@H]4[C@@H]3CC[C@]3(C)[C@@H](C5=CC(=O)OC5)[C@@H](OC(C)=O)C[C@]43O)C2)O[C@@H](C)[C@@H]1O` [Oleandrin, reference compound], the IC50 came out at 0.0426 µM in series [1]; 0.021 µM in series [2]; 0.0387 µM in series [3]; 0.035 µM in [4]; 0.073 µM in series [5]; 0.0173 µM in [6]. The “reduction in infectious virus production” value in series [13] (0.05 µg/mL) is on record as 78 fold; in [13] (0.1 µg/mL), 100 fold.
As for `C[C@]12CC[C@@H](O)C[C@H]1CCC1C2CC[C@]2(C)[C@@H](C3=CC(=O)OC3)[C@@H](O)C[C@]12O` (stereo partly drawn) [Compound 5, 4-((3R,5R,10S,13R,14S,16S,17R)-3,14,16-Trihydroxy-10,13-dimethylhexadecahydro-1H-cyclopenta[a]phenanthren-17-yl)furan-2(5H)-one], the IC50 in [1], in series [2], in [3], in [4], in series [5] and in [6] was above 10 µM throughout.
As for `C[C@]12CC[C@@H](O)C[C@H]1CCC1C2CC(O)[C@]2(C)[C@@H](C3=CC(=O)OC3)[C@@H](O)C[C@]12O` (stereo partly drawn) [Compound 8, 4-((3R,5R,10S,13S,14S,16S,17R)-3,12,14,16-Tetrahydroxy-10,13-dimethylhexadecahydro-1H-cyclopenta[a]phenanthren-17-yl)furan-2(5H)-one], the concentration for half-maximal inhibition (IC50) was 8.25 µM in series [1]; above 10 µM in series [2]; 1.95 µM in series [3]; 3.4 µM in series [4]; above 10 µM in series [5]; 9.35 µM in [6]. For the same molecule, in series [5] (up to concentration of 10 µM), the “toxicity on healthy cell line HEK-293” value was “without causing toxicity”.
Turning to `COC1(OC)CC[C@]2(C)C3CC[C@]4(C)[C@@H](C5=CC(=O)OC5)[C@@H](O)C[C@]4(O)C3C(O)C[C@@H]2C1` (stereo partly drawn) [Compound 4, 4-((5R,10S,13R,14S,16S,17R)-7,14,16-Trihydroxy-3,3-dimethoxy-10,13-dimethylhexadecahydro-1H-cyclopenta[a]phenanthren-17-yl)furan-2(5H)-one], the 50% inhibitory concentration (IC50) in series [1], in [2], in series [3], in [4], in [5] and in series [6] was above 10 µM in each case.
Consider `C[C@]12CCC(=O)C[C@H]1CCC1C2CC[C@]2(C)[C@@H](C3=CC(=O)OC3)[C@@H](O)C[C@]12O` (stereo partly drawn) [Compound 2, 4-((5R,10S,13R,14S,16S,17R)-14,16-Dihydroxy-10,13-dimethyl-3-oxohexadecahydro-1H-cyclopenta[a]phenanthren-17-yl)furan-2(5H)-one], for which the IC50 in [1], in series [2], in series [3], in [4], in series [5] and in [6] was above 10 µM in each case.
Regarding `C[C@]12CCC(=O)C[C@H]1CCC1C2CC(O)[C@]2(C)[C@@H](C3=CC(=O)OC3)[C@@H](O)C[C@]12O` (stereo partly drawn) [Compound 7, 4-((5R,10S,13S,14S,16S,17R)-12,14,16-Trihydroxy-10,13-dimethyl-3-oxohexadecahydro-1H-cyclopenta[a]phenanthren-17-yl)furan-2(5H)-one], the IC50 was above 10 µM in series [1]; above 10 µM in [2]; 6.24 µM in [3]; above 10 µM in series [4]; above 10 µM in series [5]; above 10 µM in [6].
In the case of `C[C@]12CC[C@@H](O)C[C@H]1CC(O)C1C2CC[C@]2(C)[C@@H](C3=CC(=O)OC3)[C@@H](O)C[C@]12O` (stereo partly drawn) [Compound 6, 4-((3R,5S,10S,13R,14S,16S,17R)-3,7,14,16-Tetrahydroxy-10,13-dimethylhexadecahydro-1H-cyclopenta[a]phenanthren-17-yl)furan-2(5H)-one], the IC50 in series [1], in [2], in [3], in series [4], in [5] and in series [6] was above 10 µM each time.
`COc1cccc2c1C(=O)c1c(O)c3c(c(O)c1C2=O)C[C@@](O)(C(=O)CO)C[C@@H]3O[C@H]1C[C@H](N)[C@H](O)[C@H](C)O1` [Doxorubicin, reference compound]: the IC50 was 0.62 µM in series [1]; 0.19 µM in series [2]; above 10 µM in series [3]; 0.59 µM in series [4]; 0.587 µM in series [5]; 0.865 µM in series [6].
